Experimental findings from patent US20250312352A1, “GLP-1R MODULATING COMPOUNDS” (Gilead Sciences, Inc., priority 2021, published 2025) are described below.

T1 sequence (P43220 24-463): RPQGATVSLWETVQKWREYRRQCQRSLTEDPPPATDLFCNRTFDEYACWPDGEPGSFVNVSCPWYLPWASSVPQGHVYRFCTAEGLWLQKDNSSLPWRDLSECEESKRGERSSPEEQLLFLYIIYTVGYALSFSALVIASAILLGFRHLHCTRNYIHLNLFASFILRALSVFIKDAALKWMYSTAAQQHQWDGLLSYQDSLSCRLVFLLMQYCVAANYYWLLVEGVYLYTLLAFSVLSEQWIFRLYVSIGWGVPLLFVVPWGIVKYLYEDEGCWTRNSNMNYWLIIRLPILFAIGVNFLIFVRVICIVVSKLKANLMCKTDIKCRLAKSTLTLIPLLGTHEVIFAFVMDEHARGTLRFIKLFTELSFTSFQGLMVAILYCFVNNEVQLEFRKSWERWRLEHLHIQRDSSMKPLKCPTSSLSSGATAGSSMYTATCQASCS

The assay has as its target T1, GLP-1R (Homo sapiens, UniProt P43220).
T1 construct: host or cells: CHO cells
The assay is described as follows: GLP-1R activation cAMP assay (Assay 1 or Assay 2). It is filed as cell-based. Conditions: cAMP increase in CHO cells stably expressing GLP-1R; compounds run on one of the two cAMP assays. The procedure, abridged: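 EC50 values come from a sigmoidal fit of HTRF-detected cAMP rise versus log agonist concentration. GLP-1R-expressing CHO cells, equilibrated 1 h at 37 °C in HBSS with HEPES and BSA, received a 10-point compound dose series for 30 min before detection.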
Turning to `NC(=O)c1sc(COc2cccc(-c3cc(F)c(Cc4nc5ccc(C(=O)O)cc5n4C[C@@H]4CCO4)cc3F)n2)cc1F` [Example 204, 2-[[4-[6-[(5-carbamoyl-4-fluoro-2-thienyl)methoxy]-2-pyridyl]-2,5-difluoro-phenyl]methyl]-3-[[(2S)-oxetan-2-yl]methyl]benzimidazole-5-carboxylic acid], the 50% effective concentration (EC50) (usually the midpoint of the concentration-response curve) turned out to be 5.57 nM.

Turning to `O=C(O)c1ccc2nc(Cc3cc(F)c(-c4cccc(OCc5cnc(C(=O)NC6CCC6)cc5F)n4)cc3F)n(C[C@@H]3CCO3)c2c1` [Example 246, (S)-2-(4-(6-((6-(cyclobutylcarbamoyl)-4-fluoropyridin-3-yl)methoxy)pyridin-2-yl)-2,5-difluorobenzyl)-1-(oxetan-2-ylmethyl)-1H-benzo[d]imidazole-6-carboxylic acid], the concentration giving a half-maximal response (EC50) came to 0.57 nM. The value for `CC1(C)COCC1n1c(Cc2cc(F)c(-c3cccc(OCc4ncc(C(F)(F)F)s4)n3)cc2F)nc2c(F)cc(C(=O)O)cc21` (centres unmarked) [Example 437, 2-(2,5-difluoro-4-(6-((5-(trifluoromethyl)thiazol-2-yl)methoxy)pyridin-2-yl)benzyl)-1-(4,4-dimethyltetrahydrofuran-3-yl)-4-fluoro-1H-benzo[d]imidazole-6-carboxylic acid] was 0.105 nM; that for `O=C(O)c1cc(Cl)c2nc(Cc3cc(F)c(-c4cccc(OCc5ncc(C(F)(F)F)s5)n4)cc3F)n(C[C@@H]3CCO3)c2c1` [Example 445, (S)-4-chloro-2-(2,5-difluoro-4-(6-((5-(trifluoromethyl)thiazol-2-yl)methoxy)pyridin-2-yl)benzyl)-1-(oxetan-2-ylmethyl)-1H-benzo[d]imidazole-6-carboxylic acid] was 0.101 nM; that for `O=C(O)c1ccc2nc(Cc3cc(F)c(-c4cccc(OCc5ccc(C#Cc6cnn(C(F)F)c6)cc5F)n4)cc3F)n(C[C@@H]3CCO3)c2c1` [Example 287, (S)-2-(4-(6-((4-((1-(difluoromethyl)-1H-pyrazol-4-yl)ethynyl)-2-fluorobenzyl)oxy)pyridin-2-yl)-2,5-difluorobenzyl)-1-(oxetan-2-ylmethyl)-1H-benzo[d]imidazole-6-carboxylic acid] was 0.185 nM.

As for `O=C(O)c1ccc2nc(Cc3cc(F)c(-c4cccc(OCc5ncc(-c6cnn(C7COC7)c6)s5)n4)cc3F)n(C[C@@H]3CCO3)c2c1` [Example 80, (S)-2-(2,5-difluoro-4-(6-((5-(1-(oxetan-3-yl)-1H-pyrazol-4-yl)thiazol-2-yl)methoxy)pyridin-2-yl)benzyl)-1-(oxetan-2-ylmethyl)-1H-benzo[d]imidazole-6-carboxylic acid], the 50% effective concentration (EC50) is 0.19 nM. `CC1(C)COC[C@@H]1n1c(Cc2cc(F)c(-c3cccc(OCc4ncc(C#N)s4)n3)cc2F)nc2ccc(C(=O)O)cc21` [Example 182, (R)-2-(4-(6-((5-cyanothiazol-2-yl)methoxy)pyridin-2-yl)-2,5-difluorobenzyl)-1-(4,4-dimethyltetrahydrofuran-3-yl)-1H-benzo[d]imidazole-6-carboxylic acid] registered a half-maximal effective concentration (EC50) of 0.19 nM. As for `CCOc1nnc(COc2cccc(-c3cc(F)c(Cc4nc5ccc(C(=O)O)cc5n4[C@@H]4COCC4(C)C)cc3F)n2)s1` [Example 430, (S)-1-(4,4-dimethyltetrahydrofuran-3-yl)-2-(4-(6-((5-ethoxy-1,3,4-thiadiazol-2-yl)methoxy)pyridin-2-yl)-2,5-difluorobenzyl)-1H-benzo[d]imidazole-6-carboxylic acid], the figure is 0.039 nM; as for `COc1nnc(COc2cccc(-c3cc(F)c(Cc4nc5ccc(C(=O)O)cc5n4[C@@H]4COCC4(C)C)cc3F)n2)s1` [Example 342, (S)-2-(2,5-difluoro-4-(6-((5-methoxy-1,3,4-thiadiazol-2-yl)methoxy)pyridin-2-yl)benzyl)-1-(4,4-dimethyltetrahydrofuran-3-yl)-1H-benzo[d]imidazole-6-carboxylic acid], 0.039 nM; as for `O=C(O)c1ccc2nc(Cc3cc(F)c(-c4cccc(OCc5ncc(C6CC6)o5)n4)cc3F)n(C[C@@H]3CCO3)c2c1` [Example 63, (S)-2-(4-(6-((5-cyclopropyloxazol-2-yl)methoxy)pyridin-2-yl)-2,5-difluorobenzyl)-1-(oxetan-2-ylmethyl)-1H-benzo[d]imidazole-6-carboxylic acid], 0.89 nM.

In the case of `O=C(O)c1ccc2nc(Cc3cc(F)c(-c4cccc(OCc5nnc(OC6CCC6)s5)n4)cc3F)n(C[C@@H]3CCO3)c2c1` [Example 344, (S)-2-(4-(6-((5-cyclobutoxy-1,3,4-thiadiazol-2-yl)methoxy)pyridin-2-yl)-2,5-difluorobenzyl)-1-(oxetan-2-ylmethyl)-1H-benzo[d]imidazole-6-carboxylic acid], the response was half-maximal at 0.055 nM (EC50). Compared with the last compound, the EC50 is about 16-fold lower. Take `O=C(O)c1ccc2nc(Cc3cc(F)c(-c4cccc(OCc5cnc(-c6cnn(C7CC7)c6)cc5F)n4)cc3F)n(C[C@@H]3CCO3)c2c1` [Example 161, (S)-2-(4-(6-((6-(1-cyclopropyl-1H-pyrazol-4-yl)-4-fluoropyridin-3-yl)methoxy)pyridin-2-yl)-2,5-difluorobenzyl)-1-(oxetan-2-ylmethyl)-1H-benzo[d]imidazole-6-carboxylic acid]: a half-maximal response (EC50) required 0.08 nM. As for `COc1nnc(COc2cccc(-c3cc(F)c(Cc4nc5c(F)cc(C(=O)O)cc5n4CC4(CF)CC4)cc3F)n2)s1` [Example 411, 2-(2,5-difluoro-4-(6-((5-methoxy-1,3,4-thiadiazol-2-yl)methoxy)pyridin-2-yl)benzyl)-4-fluoro-1-((1-(fluoromethyl)cyclopropyl)methyl)-1H-benzo[d]imidazole-6-carboxylic acid], the figure is 0.315 nM. As for `O=C(O)c1ccc2nc(Cc3cc(F)c(-c4cccc(OCc5ccc(C#Cc6cncs6)cc5F)n4)cc3F)n(C[C@@H]3CCO3)c2c1` [Example 137, (S)-2-(2,5-difluoro-4-(6-((2-fluoro-4-(thiazol-5-ylethynyl)benzyl)oxy)pyridin-2-yl)benzyl)-1-(oxetan-2-ylmethyl)-1H-benzo[d]imidazole-6-carboxylic acid], the figure is 0.24 nM. As for `CC1(C)COCC1n1c(Cc2cc(F)c(-c3cccc(OCc4ncc(C(F)F)s4)n3)cc2F)nc2c(F)cc(C(=O)O)cc21` (centres unmarked) [Example 341, 2-(4-(6-((5-(difluoromethyl)thiazol-2-yl)methoxy)pyridin-2-yl)-2,5-difluorobenzyl)-1-(4,4-dimethyltetrahydrofuran-3-yl)-4-fluoro-1H-benzo[d]imidazole-6-carboxylic acid], the figure is 0.772 nM; as for `Cn1nc(COc2cccc(-c3cc(F)c(Cc4nc5ccc(C(=O)O)cc5n4C[C@@H]4CCO4)cc3F)n2)cc1-c1cnn(C(F)F)c1` [Example 110, (S)-2-(4-(6-((1′-(difluoromethyl)-2-methyl-1′H,2H-[3,4′-bipyrazol]-5-yl)methoxy)pyridin-2-yl)-2,5-difluorobenzyl)-1-(oxetan-2-ylmethyl)-1H-benzo[d]imidazole-6-carboxylic acid], 0.95 nM. Take `Cc1ncc(C#Cc2ccc(COc3cccc(-c4cc(F)c(Cc5nc6ccc(C(=O)O)cc6n5C[C@@H]5CCO5)cc4F)n3)cc2)cn1` [Example 305, (S)-2-(2,5-difluoro-4-(6-((4-((2-methylpyrimidin-5-yl)ethynyl)benzyl)oxy)pyridin-2-yl)benzyl)-1-(oxetan-2-ylmethyl)-1H-benzo[d]imidazole-6-carboxylic acid]: the concentration for a half-maximal effect (EC50) is 0.305 nM. Compared with the last compound, the EC50 is about 3.1-fold lower. As for `O=C(O)c1ccc2nc(Cc3cc(F)c(-c4cccc(OCc5ncc(-c6cnn(CC7CC7)c6)s5)n4)cc3F)n(C[C@@H]3CCO3)c2c1` [Example 88, (S)-2-(4-(6-((5-(1-(cyclopropylmethyl)-1H-pyrazol-4-yl)thiazol-2-yl)methoxy)pyridin-2-yl)-2,5-difluorobenzyl)-1-(oxetan-2-ylmethyl)-1H-benzo[d]imidazole-6-carboxylic acid], the figure is 0.44 nM; as for `COc1nnc(COc2nc(-c3cc(F)c(Cc4nc5ccc(C(=O)O)cc5n4[C@@H]4COCC4(C)C)cc3F)ccc2F)s1` [Example 339, (S)-2-(2,5-difluoro-4-(5-fluoro-6-((5-methoxy-1,3,4-thiadiazol-2-yl)methoxy)pyridin-2-yl)benzyl)-1-(4,4-dimethyltetrahydrofuran-3-yl)-1H-benzo[d]imidazole-6-carboxylic acid], 0.043 nM; as for `COc1cc(C#Cc2cnn(C)c2)ncc1COc1cccc(-c2cc(F)c(Cc3nc4ccc(C(=O)O)cc4n3C[C@@H]3CCO3)cc2F)n1` [Example 145, (S)-2-(2,5-difluoro-4-(6-((4-methoxy-6-((1-methyl-1H-pyrazol-4-yl)ethynyl)pyridin-3-yl)methoxy)pyridin-2-yl)benzyl)-1-(oxetan-2-ylmethyl)-1H-benzo[d]imidazole-6-carboxylic acid], 0.25 nM. As for `Cc1nnc(COc2cccc(-c3cc(F)c(Cc4nc5c(F)cc(C(=O)O)cc5n4[C@@H]4COCC4(C)C)cc3F)n2)s1` [Example 283, (S)-2-(2,5-difluoro-4-(6-((5-methyl-1,3,4-thiadiazol-2-yl)methoxy)pyridin-2-yl)benzyl)-1-(4,4-dimethyltetrahydrofuran-3-yl)-4-fluoro-1H-benzo[d]imidazole-6-carboxylic acid], the figure is 0.109 nM. Compound `O=C(O)c1ccc2nc(Cc3cc(F)c(-c4cccc(OCc5cnc(Cl)s5)n4)cc3F)n(C[C@@H]3CCO3)c2c1` [Example 20, (S)-2-(4-(6-((2-chlorothiazol-5-yl)methoxy)pyridin-2-yl)-2,5-difluorobenzyl)-1-(oxetan-2-ylmethyl)-1H-benzo[d]imidazole-6-carboxylic acid] returned an EC50 of 0.33 nM.

`COc1nnc(COc2cccc(-c3cc(F)c(Cc4nc5c(F)cc(C(=O)O)cc5n4C[C@@H]4CCO4)cc3F)n2)s1` [Example 351, (S)-2-(2,5-difluoro-4-(6-((5-methoxy-1,3,4-thiadiazol-2-yl)methoxy)pyridin-2-yl)benzyl)-4-fluoro-1-(oxetan-2-ylmethyl)-1H-benzo[d]imidazole-6-carboxylic acid]: the EC50 came out at 0.182 nM.
